In general, IC50 refers to the concentration that inhibits the measured activity by half.

Like-named read-outs stand apart in the source and are kept apart here.

For one experiment, the system named is IPF patients. To be noted: 26-week clinical trial in IPF patients; cited from earlier work.
In experiment [1] the test system is human foetal lung fibroblasts. To be noted: induced by BAL obtained from IPF patients; cited from earlier work.
A further experiment concerns UUO mice. To be noted: UUO mice treated with the antagonist, compared with LPA1 (−/−) mice; cited from earlier work.
Experiment [2] has as its system mouse epithelial renal cell line, MCT. The conditions noted are these: LPA treatment of MCT cells, co-treatment with antagonist; cited from earlier work.
The subject of experiment [3] is pancreatic cancer cell lines. The conditions noted are these: in response to LPA and peritoneal fluid (ascites) from pancreatic cancer patients; cited from earlier work.
For experiment [4], the system named is highly peritoneal metastatic pancreatic cancer cell line. The conditions noted are these: LPA-induced and ascites-induced; cited from earlier work.
Another experiment concerns nerve-injured mice. To be noted: pretreatment; cited from earlier work.
The target in another experiment is T1, human LPA1 (Homo sapiens, UniProt Q92633).
T1 construct: expressed in transfected cells; host or cells: Chinese hamster ovary (CHO) cells
T1 sequence (Q92633 whole entry): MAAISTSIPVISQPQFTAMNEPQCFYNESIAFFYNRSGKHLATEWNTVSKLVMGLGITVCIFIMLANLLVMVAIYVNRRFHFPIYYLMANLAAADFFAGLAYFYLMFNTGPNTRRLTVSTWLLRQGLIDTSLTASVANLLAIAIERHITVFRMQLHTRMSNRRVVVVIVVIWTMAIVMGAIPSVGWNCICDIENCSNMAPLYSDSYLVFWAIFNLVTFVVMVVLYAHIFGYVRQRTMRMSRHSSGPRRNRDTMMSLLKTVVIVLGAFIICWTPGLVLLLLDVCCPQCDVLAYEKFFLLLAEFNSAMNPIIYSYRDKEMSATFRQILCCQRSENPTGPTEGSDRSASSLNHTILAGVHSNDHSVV
Nature of the experiment: LPA1 functional antagonist assay (calcium flux). Format: cell-based. The conditions noted are these: read-out: hLPA1 IC50. Here is the method:
The effectiveness of compounds of the present invention as LPA1 inhibitors can be determined in an LPA1 functional antagonist assay as follows:
Chinese hamster ovary cells overexpressing human LPA1 were plated overnight (15,000 cells/well) in poly-D-lysine coated 384-well microplates (Greiner bio-one, Cat #781946) in DMEM/F12 medium (Gibco, Cat #11039). Following overnight culture, cells were loaded with calcium indicator dye (AAT Bioquest Inc, Cat #34601) for 30 minutes at 37° C. The cells were then equilibrated to room temperature for 30 minutes before the assay. Test compounds solubilized in DMSO were transferred to 384 well non-binding surface plates (Corning, Cat #3575) using the Labcyte Echo acoustic dispense and diluted with assay buffer [1×HBSS with calcium/magnesium (Gibco Cat #14025-092), 20 mM HEPES (Gibco Cat #15630-080) and 0.1% fatty acid free BSA (Sigma Cat #A9205)] to a final concentration of 0.5% DMSO. Diluted compounds were added to the cells by FDSS6000 (Hamamatsu) at final concentrations ranging from 0.08 nM to 5 μM. and were then incubated for 20 min at room temperature at which time LPA (Avanti Polar Lipids Cat #857130C) was added at final concentrations of 10 nM to stimulate the cells. […] IC50 values were determined by fitting data to a 4-parameter logistic equation (GraphPad Prism, San Diego Calif.).

In the case of `Cc1noc(-c2ccc(-c3ccc(C4(C(=O)O)CC4)cc3)cc2)c1NC(=O)O[C@H](C)c1ccccc1` [BMS-986020], in the experiment on IPF patients, the “rate of FVC (forced vital capacity) decline” value was “significantly reduce”. As for `Cc1noc(-c2ccc(CSCCC(=O)O)cc2)c1NC(=O)OC(C)c1ccccc1Cl` (stereo not drawn) [Ki16425], the “chemotaxis of human foetal lung fibroblasts” value in experiment [1] was “blocked”. In the experiment with UUO mice, the “development of renal fibrosis” value is listed as “closely resembled the profile of LPA1 (−/−) mice”. Also, the “induction of CTGF expression” value in experiment [2] is “almost completely suppressed”. Besides, the in vitro migration result in experiment [3] is recorded as “effectively blocked”. Also, the invasion activity entry in experiment [4] is listed as “blocked”.

For the compound `C[C@@H](N)[C@H]1CC[C@H](C(=O)Nc2ccncc2)CC1` [Example Y-27632], the allodynia and hyperalgesia entry in the experiment with nerve-injured mice was “completely abolished”. Take `Cc1noc(-c2ccc(O[C@H]3CCC[C@H](C(=O)O)C3)cn2)c1CNC(=O)OCCC(C)(C)C` [Example 6]: the IC50 on human LPA1 is 7 nM. With `Cc1noc(-c2ccc(O[C@H]3CCC[C@H](C(=O)O)C3)cn2)c1CNC(=O)OCC1CCC1` [Example 7], the concentration for half-maximal inhibition (IC50) on human LPA1 is 16 nM. On the same count and under the same terms, next, `Cc1noc(-c2ccc(O[C@H]3CCC[C@H](C(=O)O)C3)cn2)c1CNC(=O)OC1CCCC1` [Example 38]: 63 nM; `Cc1noc(-c2ccc(O[C@@H]3CCC[C@@H](C(=O)O)C3)cc2)c1CNC(=O)OC(C)C1CC1` (mixture of isomers) [Example 27]: 1140 nM; `CC[C@H](C)COC(=O)NCc1c(C)noc1-c1ccc(O[C@H]2CCC[C@H](C(=O)O)C2)cn1` [Example 61]: 8 nM. Take `CCCCOC(=O)NCc1c(C)noc1-c1ccc(O[C@H]2CCC[C@H](C(=O)O)C2)cn1` [Example 65]: the 50% inhibitory concentration (IC50) on human LPA1 was 14 nM. `CCCCCCOC(=O)NCc1c(C)noc1-c1ccc(O[C@H]2CCC[C@H](C(=O)O)C2)c(C)n1` [Example 44]: the IC50 on human LPA1 came out at 6 nM.

Turning to `Cc1noc(-c2ccc(O[C@H]3CCC[C@H](C(=O)O)C3)cn2)c1CNC(=O)OCc1cc(F)cc(F)c1` [Example 37, (1S,3S)-3-((6-(4-(((((3,5-difluorobenzyl)oxy)carbonyl)amino)methyl)-3-methylisoxazol-5-yl)pyridin-3-yl)oxy)cyclohexane-1-carboxylic Acid], at human LPA1 (CHO cells overexpressing human LPA1, inhibition of calcium flux induced by 10 nM LPA), the half-inhibitory concentration (IC50) was determined as 27 nM. In the case of `Cc1noc(-c2ccc(O[C@@H]3CCC[C@@H](C(=O)O)C3)cc2)c1CNC(=O)O[C@H](C)c1ccccc1` (mixture of isomers) [Example 17], the half-inhibitory concentration (IC50) at human LPA1 amounted to 293 nM. For the compound `Cc1noc(-c2ccc(O[C@@H]3CCC[C@@H](C(=O)O)C3)cc2)c1CNC(=O)OCc1cccc(F)c1` (racemic) [Example 21], the half-maximal inhibitory concentration (IC50) at human LPA1 came out at 257 nM. With `Cc1noc(-c2ccc(O[C@H]3CCC[C@H](C(=O)O)C3)cc2)c1CN(C)C(=O)OCc1ccccc1` [Example 13], on human LPA1, the half-inhibitory concentration (IC50) came out at 63 nM. Still for that read-out and setting: the result for `Cc1noc(-c2ccc(O[C@H]3CCC[C@H](C(=O)O)C3)cc2)c1NC(=O)O[C@H](C)C1CC1` (single isomer, unassigned) [Example 32] reads 84 nM. As for `Cc1noc(-c2ccc(O[C@@H]3CCC[C@@H](C(=O)O)C3)cc2)c1CNC(=O)OCC1CCC1` (racemic) [Example 29], the half-inhibitory concentration (IC50) on human LPA1 came to 407 nM. On the same count and under the same terms, next, `Cc1noc(-c2ccc(O[C@H]3CCC[C@H](C(=O)O)C3)cn2)c1CNC(=O)OCCC1CC1` [Example 62]: 77 nM.

These data come from patent publication US11447475B2, “Isoxazole N-linked carbamoyl cyclohexyl acids as LPA antagonists” (BRISTOL-MYERS SQUIBB COMPANY, priority 2017, dated 2022).
